In patent publication US11696903B2, “Compounds and methods for scavenging dicarbonyl electrophiles” (VANDERBILT UNIVERSITY, priority 2019, dated 2023):

What was measured:
[1] = tested on: LG-histone adducts in RAW264.7 cells; experiment: LG-lysyl adduct formation on histones in RAW264.7 cells (LC/ESI/MS/MS); assay type: cell-based, mouse
Method: (§1) FIGS. 11A, 11B, 11C, 11D, 11E, and 11F are a series of graphs showing that LG-lysine adducts of histones are found in cells and tissue, dependent on COX-2 activity. RAW264.7 mouse macrophage (A) and A549 human lung carcinoma (C) cells were stimulated to express COX-2, then given 20 μM arachidonic acid (AA) or vehicle. A subgroup of cells was preincubated 45 min with 50 μM indomethacin. As a measure of COX activity, PGE2 was determined by GC/MS from cell media prior to lysis (B and D). Nuclei were isolated, and histones were extracted and digested to individual amino acids prior to LC/EST/MS/MS analysis. *, p<0.05; ***, p<0.001 by ANOVA followed by Tukey's post-test (n≥5). (E). Histones were extracted from nuclei of rat liver, and analyzed as above for LG-lactam adduct. COX-2 protein was analyzed by Western blotting and plotted against lactam adduct levels. Each point corresponds to 1 liver, and shown is the line of regression (r^2=0.7237). Pearson r=0.8507; two-tailed p=0.0152. (F) LC-MS chromatograph of histones isolated from a rat liver with relatively high COX-2 expression (COX-2 band intensity of 117 arbitrary units).
(A). Scavengers were screened in RAW264.7 cells for the ability to decrease LG adduct formation on histones. Scavengers used were glucosamine (GA), 3-methoxysalicylamine (3-MoSA), pentylpyridoxamine (PPM), and 5-ethylsalicylamine (EtSA). Cells were stimulated to express COX-2, pretreated 45 min. with 500 μM scavenger or vehicle (H2O), and given 20 μM AA for 1 h before lysing and extracting histones. Histone proteins were analyzed by LC/ESI/MS/MS for LG-lysyl lactam adduct, n=2. (B) Stimulated A549 cells were pretreated with 30, 300, or 1000 μM EtSA prior to 1 h with 20 μM AA, and histones analyzed for LG-lysyl adduct. *, p<0.05 by one-way ANOVA followed by Dunnett's multiple comparisons post-test (n=3-5). (C). A549 cells were stimulated, pretreated 45 min. with 1000 μM EtSA or H2O vehicle, and given 20 μM AA for 1 h. Media was analyzed by GC/MS for PGE2 (n=3). There was no effect on PGE2 production at lower doses of EtSA (data not shown).
To stimulate COX-2 expression, A549 or RAW264.7 cells were treated overnight with 5 ng/mL IL-1B (A549) or 10 μg/mL LPS and 10 U/mL IFNγ (RAW264.7) in serum-free medium. When indicated, cells were pretreated with indomethacin, aldehyde scavengers (glucosamine, 3-MoSA, PPM or EtSA), or vehicle (ethanol for indomethacin, H2O for scavengers) for 45 min, and then given 20 μM arachidonic acid (AA) or DMSO vehicle for 1 h before lysing.
Cultured cells were lysed in hypotonic buffer (10 mM Tris/10 mM NaCl/3 mM MgCl2) containing 1 mM pyridoxamine and 100 μM indomethacin to prevent the artifactual formation of LGE2 during the lytic process. […] Protein concentration was determined using the method of Bradford. […]

oxidative damage = conditions: mice; cited from earlier work
[2] = Reaction rate of scavengers with dicarbonyl electrophiles / LG relative to lysine; conditions: faster than lysine
From the text: Under conditions such as inflammation and/or accumulated mutations, epithelial cells and adjacent immune cells express genes encoding enzymes involved in carcinogenesis, such as prostaglandin-endoperoxide synthase (PGHS2; COX2), NADPH oxidases, and spermine oxidase. The products of these enzymes (prostaglandins, O2D, and H2O2 plus 3-aminopropanal) lead to formation of dicarbonyl electrophiles: levuglandins (LGs), malondialdehyde (MDA), 4-oxo-nonenal (4-O NE), and acrolein. Electrophiles may lead to immune dysfunction and neoplastic risk by forming adducts with proteins and DNA11-15. However, the role of these reactive aldehydes in colon carcinogenesis is previously unknown. The present inventors have discovered that the level of LG-protein adducts is increased in the colon tissues of i) human ulcerative colitis (UC), colitis-associated carcinogenesis (CAC), and CRC; ii) mice treated with azoxymethane-dextran sulfate sodium (AOM-DSS), a model of CAC; and iii) transgenic mice with a tamoxifen-inducible disruption of Apc using the colon-specific, caudal type homeobox 2 (CDX2) Cre (CDX2P-CreERT2;Apcff), which recapitulates sporadic/genetically-driven CRC. […]

lysyl-LG adducts = experiment: Lysyl-LG adducts in gastric tissues of H. pylori-infected mice (LC/ESI/MS/MS); assay type: in vivo; conditions: H. pylori infected mice treated for 8 weeks
Method: FIGS. 15A, 15B, and 15C are graphs showing C57BL/6 (A) or INS-GAS mice (B) were infected for 8 weeks with H. pylori PMSS1. Lysyl-LG adducts were measured in the gastric tissues by LC/ESI/MS/MS. *P<0.05. (C) Lysyl-LG adducts concentration was determined in AGS cells infected (plain bars) or not (open bars) with H. pylori PMSS1 for 24 h, in the presence or absence of EtSA. *P<0.05 vs. uninfected cells. § P<0.05 vs. infected cells without EtSA.
FIG. 17 is a graph showing reduction in the concentration of lysyl-levuglandin adducts in the stomachs of H. pylori infected mice treated with 2-hydroxybenzylamine for 8 weeks.
As discussed further in the Examples, the human gastric epithelial cell line AGS was infected with Hp PMSS1±10 mM EtSA. FVB/N insulin-gastrin (INS-GAS) mice and Mongolian gerbils were infected for 8 wk with Hp PMSS1 and 7.13, respectively; EtSA (0.75% in water) was given to animals beginning one wk post-infection. Lys-LG adducts, a marker of electrophile reactions, and EtSA were quantified by LC/EST/MS/MS. Histology was analyzed on H&E staining. DNA damage was evaluated by pH2AX staining. Hp colonization was quantified by culture. Mucosal immune responses were determined by RNA profiling and by Luminex assay. Mice were imaged using PET/CT with ^18F-FDG (inflammation marker) and ^18F—NaF (tumor marker). […]

[3] = tested on: LG-histone adducts in A549 cells; experiment: LG-lysyl adduct formation on histones in A549 cells (LC/ESI/MS/MS); assay type: cell-based, human; conditions: COX-2-stimulated A549, 20 μM AA, 50 μM indomethacin preincubated 45 min
Method: as §1, with “(F) LC-MS chromatograph of histones isolated from a rat liver with relatively high COX-2 expression (COX-2 band intensity of 117 arbitrary units).” left out
(A). […] Histone proteins were analyzed by LC/ESI/MS/MS for LG-lysyl lactam adduct, n=2. (B) Stimulated A549 cells were pretreated with 30, 300, or 1000 μM EtSA prior to 1 h with 20 μM AA, and histones analyzed for LG-lysyl adduct. *, p<0.05 by one-way ANOVA followed by Dunnett's multiple comparisons post-test (n=3-5). […] Media was analyzed by GC/MS for PGE2 (n=3). […]

For pentylpyridoxamine [reference compound], the “LG adduct formation on histones” value ([1]; stimulated RAW264.7, 500 μM scavenger 45 min, 20 μM AA 1 h) was “partially inhibited”.

In the case of `NCc1ccccc1O` [2-HOBA, 2-hydroxybenzylamine], the “oxidative damage in models of hypertension and Alzheimer's disease” value (oxidative damage) is listed as “protects mice from oxidative damage”, the “rate of reaction with dicarbonyl electrophiles” value [2] is listed as 3 orders of magnitude and the “concentration of lysyl-levuglandin adducts in the stomachs” value (lysyl-LG adducts) is listed as “reduction”.

In the case of `COc1ccc2c(c1)c(CC(=O)O)c(C)n2C(=O)c1ccc(Cl)cc1` [indomethacin, reference compound], the LG-histone adduct formation [3] is reported as “blocked” and the LG-histone adduct formation ([1]; COX-2-stimulated RAW264.7, 20 μM AA, 50 μM indomethacin preincubated 45 min) is reported as “blocked”.
